{
  "source": "ChEMBL document CHEMBL5696441",
  "about": "(Nat Chem Biol, 2011)",
  "key": {"[1]": {"target": "Eukaryotic translation initiation factor 2-alpha kinase 1 (Homo sapiens) (UniProt Q9BQI3)", "experiment": "Inhibition of human HRI assessed as residual activity at 1 uM using casein as substrate in presence of 33P-ATP by ProQinase assay relative to control"}, "[2]": {"target": "Serine/threonine-protein kinase WNK3 (Homo sapiens) (UniProt Q9BYP7)", "sequence (Q9BYP7 whole entry)": "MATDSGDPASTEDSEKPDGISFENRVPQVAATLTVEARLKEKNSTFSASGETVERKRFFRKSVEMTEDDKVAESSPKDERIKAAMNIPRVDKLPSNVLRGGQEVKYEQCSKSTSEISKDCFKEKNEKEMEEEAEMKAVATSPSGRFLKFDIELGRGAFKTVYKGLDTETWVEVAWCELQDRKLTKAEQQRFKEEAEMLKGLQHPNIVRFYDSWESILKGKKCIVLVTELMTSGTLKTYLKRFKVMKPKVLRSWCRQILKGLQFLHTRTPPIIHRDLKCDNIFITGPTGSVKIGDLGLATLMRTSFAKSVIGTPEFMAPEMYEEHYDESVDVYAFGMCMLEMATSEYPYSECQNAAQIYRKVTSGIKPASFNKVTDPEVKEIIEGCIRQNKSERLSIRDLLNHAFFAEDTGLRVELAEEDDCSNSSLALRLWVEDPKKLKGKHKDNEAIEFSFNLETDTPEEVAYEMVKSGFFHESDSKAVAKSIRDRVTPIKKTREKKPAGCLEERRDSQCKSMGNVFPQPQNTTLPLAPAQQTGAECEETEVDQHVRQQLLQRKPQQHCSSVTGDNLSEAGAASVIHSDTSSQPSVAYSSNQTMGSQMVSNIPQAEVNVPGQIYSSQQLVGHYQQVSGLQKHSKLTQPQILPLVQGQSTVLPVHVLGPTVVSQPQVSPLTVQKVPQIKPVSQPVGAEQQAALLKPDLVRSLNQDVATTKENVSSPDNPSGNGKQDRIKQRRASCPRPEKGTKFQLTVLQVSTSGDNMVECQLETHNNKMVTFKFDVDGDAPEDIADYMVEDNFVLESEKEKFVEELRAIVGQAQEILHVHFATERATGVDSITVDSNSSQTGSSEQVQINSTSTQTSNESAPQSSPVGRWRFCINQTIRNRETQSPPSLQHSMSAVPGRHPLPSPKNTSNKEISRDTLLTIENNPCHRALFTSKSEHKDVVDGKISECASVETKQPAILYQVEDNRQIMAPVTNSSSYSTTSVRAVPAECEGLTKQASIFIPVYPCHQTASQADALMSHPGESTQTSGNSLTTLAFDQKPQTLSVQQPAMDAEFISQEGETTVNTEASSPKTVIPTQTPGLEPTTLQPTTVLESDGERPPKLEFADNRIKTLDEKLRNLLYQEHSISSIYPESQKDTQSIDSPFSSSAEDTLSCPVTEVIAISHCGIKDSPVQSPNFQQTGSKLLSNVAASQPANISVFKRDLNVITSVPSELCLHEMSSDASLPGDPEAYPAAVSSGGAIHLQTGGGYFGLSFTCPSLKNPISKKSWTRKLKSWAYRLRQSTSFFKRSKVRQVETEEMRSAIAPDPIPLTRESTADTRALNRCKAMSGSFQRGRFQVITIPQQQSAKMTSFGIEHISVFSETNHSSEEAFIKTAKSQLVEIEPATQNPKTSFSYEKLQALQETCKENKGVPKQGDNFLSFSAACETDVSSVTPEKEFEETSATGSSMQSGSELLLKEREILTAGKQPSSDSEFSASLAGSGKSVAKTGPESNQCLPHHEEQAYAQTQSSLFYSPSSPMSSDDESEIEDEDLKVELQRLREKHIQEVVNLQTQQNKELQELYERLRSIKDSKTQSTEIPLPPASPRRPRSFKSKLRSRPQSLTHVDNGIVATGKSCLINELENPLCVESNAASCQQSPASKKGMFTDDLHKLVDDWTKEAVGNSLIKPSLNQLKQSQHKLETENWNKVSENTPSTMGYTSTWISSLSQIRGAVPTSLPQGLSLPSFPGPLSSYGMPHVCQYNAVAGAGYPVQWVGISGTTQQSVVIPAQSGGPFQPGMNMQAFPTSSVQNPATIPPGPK", "experiment": "Inhibition of human WNK3 assessed as residual activity at 1 uM using RB-S6P as substrate in presence of 33P-ATP by ProQinase assay relative to control"}, "[3]": {"target": "Casein kinase I isoform gamma-3 (Homo sapiens) (UniProt Q9Y6M4)", "sequence (Q9Y6M4 whole entry, looked up, canonical isoform)": "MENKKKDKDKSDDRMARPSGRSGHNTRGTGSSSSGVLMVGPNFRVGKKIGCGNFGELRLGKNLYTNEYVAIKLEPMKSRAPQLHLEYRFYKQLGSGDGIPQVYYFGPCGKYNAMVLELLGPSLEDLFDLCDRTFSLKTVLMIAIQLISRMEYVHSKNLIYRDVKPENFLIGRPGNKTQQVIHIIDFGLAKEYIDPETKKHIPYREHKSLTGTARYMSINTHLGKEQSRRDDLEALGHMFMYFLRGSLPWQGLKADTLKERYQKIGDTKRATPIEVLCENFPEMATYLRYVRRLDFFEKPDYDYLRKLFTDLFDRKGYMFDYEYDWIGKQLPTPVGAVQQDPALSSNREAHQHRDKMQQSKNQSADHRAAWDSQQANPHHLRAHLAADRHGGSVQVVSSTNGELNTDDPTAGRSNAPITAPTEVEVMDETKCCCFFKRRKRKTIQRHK", "experiment": "Inhibition of human CK1gamma3 assessed as residual activity at 1 uM using casein as substrate in presence of 33P-ATP by ProQinase assay relative to control"}, "[4]": {"target": "Protein kinase C beta type (Homo sapiens) (UniProt P05771)", "sequence (P05771 2-671 limits assumed)": "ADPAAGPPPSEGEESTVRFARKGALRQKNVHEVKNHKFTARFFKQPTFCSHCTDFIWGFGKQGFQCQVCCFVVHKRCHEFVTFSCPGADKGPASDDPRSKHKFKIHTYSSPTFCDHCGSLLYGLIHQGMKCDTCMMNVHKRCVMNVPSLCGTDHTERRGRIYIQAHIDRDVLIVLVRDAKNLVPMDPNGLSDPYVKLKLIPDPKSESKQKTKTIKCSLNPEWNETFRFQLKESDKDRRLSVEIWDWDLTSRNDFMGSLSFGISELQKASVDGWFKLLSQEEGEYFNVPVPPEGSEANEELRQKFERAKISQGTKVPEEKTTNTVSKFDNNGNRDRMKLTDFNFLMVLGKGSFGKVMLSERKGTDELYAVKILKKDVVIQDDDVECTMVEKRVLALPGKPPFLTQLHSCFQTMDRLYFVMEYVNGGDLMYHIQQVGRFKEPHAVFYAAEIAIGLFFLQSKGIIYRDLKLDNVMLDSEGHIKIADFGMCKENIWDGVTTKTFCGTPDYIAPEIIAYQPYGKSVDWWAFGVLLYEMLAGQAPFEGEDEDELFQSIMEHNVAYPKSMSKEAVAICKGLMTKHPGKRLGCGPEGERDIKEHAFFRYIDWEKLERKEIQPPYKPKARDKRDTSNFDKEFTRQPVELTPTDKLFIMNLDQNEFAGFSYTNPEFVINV", "experiment": "Inhibition of human PKCbeta2 assessed as residual activity at 1 uM using 3xChocktide-PKC as substrate in presence of 33P-ATP by ProQinase assay relative to control"}, "[5]": {"target": "Casein kinase I isoform alpha (Homo sapiens) (UniProt P48729)", "sequence (P48729 2-337 limits assumed)": "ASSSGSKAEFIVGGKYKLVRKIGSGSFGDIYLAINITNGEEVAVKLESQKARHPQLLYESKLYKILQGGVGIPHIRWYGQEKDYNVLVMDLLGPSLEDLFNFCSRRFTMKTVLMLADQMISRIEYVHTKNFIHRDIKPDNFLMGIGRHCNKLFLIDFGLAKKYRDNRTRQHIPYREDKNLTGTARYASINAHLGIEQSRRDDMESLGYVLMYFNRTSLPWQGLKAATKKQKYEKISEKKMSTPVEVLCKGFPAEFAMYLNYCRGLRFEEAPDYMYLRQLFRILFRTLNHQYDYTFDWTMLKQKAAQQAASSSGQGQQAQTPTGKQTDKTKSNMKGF", "experiment": "Inhibition of human CK1alpha1 assessed as residual activity at 1 uM using casein as substrate in presence of 33P-ATP by ProQinase assay relative to control"}, "[6]": {"target": "Mitogen-activated protein kinase 1 (Homo sapiens) (UniProt P28482)", "sequence (P28482 whole entry)": "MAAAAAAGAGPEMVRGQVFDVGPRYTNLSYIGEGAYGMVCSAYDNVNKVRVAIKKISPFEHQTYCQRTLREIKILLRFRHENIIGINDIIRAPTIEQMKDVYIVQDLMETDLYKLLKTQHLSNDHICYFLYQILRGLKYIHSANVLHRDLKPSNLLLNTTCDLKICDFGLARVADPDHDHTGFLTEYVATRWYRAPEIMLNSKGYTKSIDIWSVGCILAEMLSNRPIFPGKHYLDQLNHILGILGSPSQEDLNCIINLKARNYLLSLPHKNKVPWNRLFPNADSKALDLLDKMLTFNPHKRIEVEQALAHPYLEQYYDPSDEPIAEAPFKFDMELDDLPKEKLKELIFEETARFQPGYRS", "experiment": "Inhibition of human ERK2 assessed as residual activity at 1 uM using RBER-CHKtide as substrate in presence of 33P-ATP by ProQinase assay relative to control"}, "[7]": {"target": "Casein kinase I isoform alpha-like (Homo sapiens) (UniProt Q8N752)", "experiment": "Inhibition of CSNK1A1L (unknown origin) assessed as remaining activity at 1 uM by Kinome scan method relative to control"}, "[8]": {"target": "T1, Myosin light chain kinase (Homo sapiens) (UniProt Q32MK0)", "T1 sequence (whole entry)": "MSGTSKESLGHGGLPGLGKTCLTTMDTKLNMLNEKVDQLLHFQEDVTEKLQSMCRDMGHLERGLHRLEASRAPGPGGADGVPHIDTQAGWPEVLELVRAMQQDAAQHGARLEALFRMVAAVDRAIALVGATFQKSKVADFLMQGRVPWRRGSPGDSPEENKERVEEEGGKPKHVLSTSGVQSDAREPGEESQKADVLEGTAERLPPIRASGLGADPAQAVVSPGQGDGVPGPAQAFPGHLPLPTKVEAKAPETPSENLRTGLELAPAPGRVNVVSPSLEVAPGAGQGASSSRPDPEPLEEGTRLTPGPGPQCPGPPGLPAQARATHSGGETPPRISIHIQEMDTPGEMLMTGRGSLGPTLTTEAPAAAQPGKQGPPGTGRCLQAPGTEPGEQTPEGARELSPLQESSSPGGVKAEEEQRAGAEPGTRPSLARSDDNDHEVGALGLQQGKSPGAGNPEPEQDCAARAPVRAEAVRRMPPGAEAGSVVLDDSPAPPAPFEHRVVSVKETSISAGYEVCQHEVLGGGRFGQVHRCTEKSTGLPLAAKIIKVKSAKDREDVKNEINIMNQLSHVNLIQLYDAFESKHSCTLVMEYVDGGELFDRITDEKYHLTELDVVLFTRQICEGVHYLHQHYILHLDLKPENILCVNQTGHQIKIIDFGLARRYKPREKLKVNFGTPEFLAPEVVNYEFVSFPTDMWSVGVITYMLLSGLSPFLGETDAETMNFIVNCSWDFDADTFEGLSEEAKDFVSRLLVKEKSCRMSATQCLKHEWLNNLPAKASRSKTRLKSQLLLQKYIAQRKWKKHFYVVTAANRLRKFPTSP", "experiment": "Inhibition of human MYLK3 assessed as residual activity at 1 uM using RB-S6P as substrate in presence of 33P-ATP by ProQinase assay relative to control"}, "[9]": {"target": "Serine/threonine-protein kinase 33 (Homo sapiens) (UniProt Q9BYT3)", "experiment": "Inhibition of human STK33 assessed as residual activity at 1 uM using RBER-CHKtide as substrate in presence of 33P-ATP by ProQinase assay relative to control"}, "[10]": {"experiment": "Anti-inflammatory activity against human derived medium respond PBMC cells assessed as inhibition in stimulated IP-10 chemokine release incubated for 2 hrs in the presence of LPS/SEB/aCD28 by Luminex based sandwich immunoassay", "assay_type": "functional, cell-based"}, "[11]": {"target": "Serine/threonine-protein kinase VRK1 (Homo sapiens) (UniProt Q99986)", "sequence (Q99986 whole entry)": "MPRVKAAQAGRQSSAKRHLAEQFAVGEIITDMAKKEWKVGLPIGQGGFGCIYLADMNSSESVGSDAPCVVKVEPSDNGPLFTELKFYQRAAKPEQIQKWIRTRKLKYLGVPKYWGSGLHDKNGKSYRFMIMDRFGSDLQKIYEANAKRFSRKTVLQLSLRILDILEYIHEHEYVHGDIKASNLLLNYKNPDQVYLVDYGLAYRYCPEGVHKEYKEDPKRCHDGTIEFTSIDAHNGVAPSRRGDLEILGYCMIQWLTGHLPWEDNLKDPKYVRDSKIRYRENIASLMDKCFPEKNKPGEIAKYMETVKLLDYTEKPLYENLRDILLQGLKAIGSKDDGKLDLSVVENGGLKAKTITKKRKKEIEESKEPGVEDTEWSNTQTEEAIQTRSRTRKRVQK", "experiment": "Inhibition of human VRK1 assessed as residual activity at 1 uM using RBER-CHKtide as substrate in presence of 33P-ATP by ProQinase assay relative to control"}, "[12]": {"target": "Tyrosine-protein kinase receptor UFO (Homo sapiens) (UniProt P30530)", "sequence (P30530 whole entry)": "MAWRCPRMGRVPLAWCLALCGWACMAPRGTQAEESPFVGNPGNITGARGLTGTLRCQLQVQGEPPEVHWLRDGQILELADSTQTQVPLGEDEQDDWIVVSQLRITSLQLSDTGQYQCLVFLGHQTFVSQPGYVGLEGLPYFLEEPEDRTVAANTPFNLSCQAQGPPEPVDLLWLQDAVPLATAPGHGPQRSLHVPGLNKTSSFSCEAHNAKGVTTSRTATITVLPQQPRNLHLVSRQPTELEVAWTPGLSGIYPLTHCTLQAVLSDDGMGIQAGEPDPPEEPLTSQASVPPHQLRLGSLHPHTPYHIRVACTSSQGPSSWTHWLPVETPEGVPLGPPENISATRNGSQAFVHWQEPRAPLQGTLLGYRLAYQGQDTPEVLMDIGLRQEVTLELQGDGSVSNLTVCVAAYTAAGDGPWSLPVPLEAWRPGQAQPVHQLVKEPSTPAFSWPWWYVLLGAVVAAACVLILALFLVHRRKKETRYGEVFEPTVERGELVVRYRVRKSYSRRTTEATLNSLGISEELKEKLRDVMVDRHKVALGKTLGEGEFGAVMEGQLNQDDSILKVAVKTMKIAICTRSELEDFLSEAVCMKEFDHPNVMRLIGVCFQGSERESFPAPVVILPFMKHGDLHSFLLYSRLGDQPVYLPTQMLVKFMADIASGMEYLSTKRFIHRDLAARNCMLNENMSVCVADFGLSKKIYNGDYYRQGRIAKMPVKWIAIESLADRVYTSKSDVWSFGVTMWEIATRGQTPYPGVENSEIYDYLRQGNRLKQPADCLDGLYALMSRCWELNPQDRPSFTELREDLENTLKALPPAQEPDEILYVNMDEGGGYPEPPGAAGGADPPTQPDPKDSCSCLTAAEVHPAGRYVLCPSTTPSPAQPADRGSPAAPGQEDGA", "experiment": "Inhibition of human AXL assessed as residual activity at 1 uM using polyEy as substrate in presence of 33P-ATP by ProQinase assay relative to control"}, "[13]": {"target": "Activin receptor type-1-like (Homo sapiens) (UniProt P37023)", "experiment": "Inhibition of human ACVRL1 assessed as residual activity at 1 uM using Casein as substrate in presence of 33P-ATP by ProQinase assay relative to control"}, "[14]": {"experiment": "Anti-inflammatory activity against human derived high respond PBMC cells assessed as inhibition in stimulated IL-1beta cytokine release incubated for 2 hrs in the presence of LPS/SEB/aCD28 by Luminex based sandwich immunoassay", "assay_type": "functional, cell-based"}},
  "note": "pIC50: −log10 of the molar value.",
  "data": [
    {"smiles": "O=C1c2ccc(Nc3ccc(F)cc3F)cc2CCc2ccc(OC[C@H](O)CO)cc21", "note": "[Skepinone-L]", "values": [
      {"measurement": "Activity", "setting": "[1]", "value": 106, "unit": "%"},
      {"measurement": "Activity", "setting": "[2]", "value": 100, "unit": "%"},
      {"measurement": "Activity", "setting": "[3]", "value": 95, "unit": "%"},
      {"measurement": "Activity", "setting": "[4]", "value": 97, "unit": "%"},
      {"measurement": "Activity", "setting": "[5]", "value": 97, "unit": "%"},
      {"measurement": "Activity", "setting": "[6]", "value": 83, "unit": "%"},
      {"measurement": "Activity", "setting": "[7]", "value": 98, "unit": "%"},
      {"measurement": "Activity", "setting": "[8]", "value": 85, "unit": "%"},
      {"measurement": "Activity", "setting": "[9]", "value": 94, "unit": "%"},
      {"measurement": "pIC50", "setting": "[10]", "value": 5.23},
      {"measurement": "Activity", "setting": "[11]", "value": 88, "unit": "%"},
      {"measurement": "Activity", "setting": "[12]", "value": 100, "unit": "%"},
      {"measurement": "Activity", "setting": "[13]", "value": 105, "unit": "%"},
      {"measurement": "pIC50", "setting": "[14]", "value": 7.52}
    ]}
  ]
}
